Measurements as given in PubChem BioAssay (NCI).
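Where inhibition never reached the appropriate level, the endpoint shown equals the highest concentration tested. Otherwise, values were interpolated linearly from a five-concentration, 48-hour dose response in 96-well plates. GI50: concentration for 50% inhibition of growth. TGI marks complete inhibition of growth.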

Experiments:
Assay in all cases: inhibition of tumour cell growth, NCI panel, 48 h
[1] = test system: 786-0 renal
[2] = test system: A498 renal
[3] = test system: A549 NSCLC
[4] = test system: ACHN renal
[5] = test system: BT-549 breast
[6] = test system: CAKI-1 renal
[7] = test system: CCRF-CEM leukemia
[8] = test system: COLO 205 colon
[9] = test system: DU-145 prostate
[10] = test system: EKVX NSCLC
[11] = test system: HCC-2998 colon
[12] = test system: HCT-116 colon
[13] = test system: HCT-15 colon
[14] = test system: HL-60(TB) leukemia
[15] = test system: HOP-62 NSCLC
[16] = test system: HOP-92 NSCLC
[17] = test system: HS 578T breast
[18] = test system: HT29 colon
[19] = test system: IGROV1 ovarian
[20] = test system: K-562 leukemia
[21] = test system: KM12 colon
[22] = test system: LOX IMVI melanoma
[23] = test system: M14 melanoma
[24] = test system: MALME-3M melanoma
[25] = test system: MCF7 breast
[26] = test system: MDA-MB-231 breast
[27] = test system: MDA-MB-435
[28] = test system: MOLT-4 leukemia
[29] = test system: NCI-H226 lung
[30] = test system: NCI-H23 lung
[31] = test system: NCI-H460 lung
[32] = test system: NCI-H522 lung
[33] = test system: NCI/ADR-RES ovarian
[34] = test system: OVCAR-3 ovarian
[35] = test system: OVCAR-4 ovarian
[36] = test system: OVCAR-5 ovarian
[37] = test system: OVCAR-8 ovarian
[38] = test system: PC-3 prostate
[39] = test system: RPMI-8226 leukemia
[40] = test system: RXF 393 renal
[41] = test system: SF-268 CNS
[42] = test system: SF-295 CNS
[43] = test system: SF-539 CNS
[44] = test system: SK-MEL-2 melanoma
[45] = test system: SK-MEL-28 melanoma
[46] = test system: SK-MEL-5 melanoma
[47] = test system: SK-OV-3 ovarian
[48] = test system: SN12C renal
[49] = test system: SNB-19 CNS
[50] = test system: SNB-75 CNS
[51] = test system: SR leukemia
[52] = test system: SW-620 colon
[53] = test system: T-47D breast
[54] = test system: TK-10 renal
[55] = test system: U251 CNS
[56] = test system: UACC-257 melanoma
[57] = test system: UACC-62 melanoma
[58] = test system: UO-31 renal

SMILES: ClC1=C(Cl)C(Cl)=C(Cl)C1=Cc1ccccc1
- GI50 [1]: 1.32 µM
- TGI [1]: 3.08 µM
- GI50 [2]: 1.39 µM
- TGI [2]: 2.78 µM
- GI50 [3]: 1.63 µM
- TGI [3]: 4.32 µM
- GI50 [4]: 0.703 µM
- TGI [4]: 2.22 µM
- GI50 [5]: 1.68 µM
- TGI [5]: 3.89 µM
- GI50 [6]: 0.342 µM
- TGI [6]: 1.13 µM
- GI50 [7]: 0.288 µM
- TGI [7]: 3.57 µM
- GI50 [8]: 0.937 µM
- TGI [8]: 2.65 µM
- GI50 [9]: 0.708 µM
- TGI [9]: 2.83 µM
- GI50 [10]: 1.4 µM
- TGI [10]: 3.39 µM
- GI50 [11]: 1.73 µM
- TGI [11]: 3.14 µM
- GI50 [12]: 0.293 µM
- TGI [12]: 0.936 µM
- GI50 [13]: 1.22 µM
- TGI [13]: 6.04 µM
- GI50 [14]: 0.595 µM
- TGI [14]: 2.4 µM
- GI50 [15]: 1.64 µM
- TGI [15]: 3.68 µM
- GI50 [16]: 0.621 µM
- TGI [16]: 1.61 µM
- GI50 [17]: 0.915 µM
- TGI [17]: 10.1 µM
- GI50 [18]: 0.457 µM
- TGI [18]: 2.27 µM
- GI50 [19]: 0.916 µM
- TGI [19]: 2.51 µM
- GI50 [20]: 0.277 µM
- TGI [20]: 3.5 µM
- GI50 [21]: 1.47 µM
- TGI [21]: 3.11 µM
- GI50 [22]: 0.198 µM
- TGI [22]: 0.469 µM
- GI50 [23]: 0.495 µM
- TGI [23]: 2.11 µM
- GI50 [24]: 1.49 µM
- TGI [24]: 4.15 µM
- GI50 [25]: 0.61 µM
- TGI [25]: 7.02 µM
- GI50 [26]: 2.43 µM
- TGI [26]: 10.4 µM
- GI50 [27]: 0.35 µM
- TGI [27]: 1.16 µM
- GI50 [28]: 0.314 µM
- TGI [28]: 1.56 µM
- GI50 [29]: 1.91 µM
- TGI [29]: 3.86 µM
- GI50 [30]: 0.52 µM
- TGI [30]: 2.08 µM
- GI50 [31]: 1.25 µM
- TGI [31]: 4.13 µM
- GI50 [32]: 0.189 µM
- TGI [32]: 0.459 µM
- GI50 [33]: 0.287 µM
- TGI [33]: 1.16 µM
- GI50 [34]: 0.463 µM
- TGI [34]: 1.62 µM
- GI50 [35]: 2 µM
- TGI [35]: 6.92 µM
- GI50 [36]: 1.65 µM
- TGI [36]: 3.85 µM
- GI50 [37]: 0.417 µM
- TGI [37]: 21 µM
- GI50 [38]: 0.622 µM
- TGI [38]: 3.7 µM
- GI50 [39]: 0.311 µM
- TGI [39]: 2.3 µM
- GI50 [40]: 0.92 µM
- TGI [40]: 2.23 µM
- GI50 [41]: 0.753 µM
- TGI [41]: 2.43 µM
- GI50 [42]: 1.33 µM
- TGI [42]: 3.74 µM
- GI50 [43]: 1.83 µM
- TGI [43]: 4.2 µM
- GI50 [44]: 1.38 µM
- TGI [44]: 2.97 µM
- GI50 [45]: 1.62 µM
- TGI [45]: 3.27 µM
- GI50 [46]: 1.38 µM
- TGI [46]: 2.68 µM
- GI50 [47]: 2 µM
- TGI [47]: 4.66 µM
- GI50 [48]: 1.95 µM
- TGI [48]: 7.15 µM
- GI50 [49]: 1.63 µM
- TGI [49]: 3.58 µM
- GI50 [50]: 1.46 µM
- TGI [50]: 3.1 µM
- GI50 [51]: 0.334 µM
- TGI [51]: 2.57 µM
- GI50 [52]: 0.293 µM
- TGI [52]: 1.03 µM
- GI50 [53]: 1.15 µM
- TGI [53]: 3.56 µM
- GI50 [54]: 0.645 µM
- TGI [54]: 2.02 µM
- GI50 [55]: 0.517 µM
- TGI [55]: 1.59 µM
- GI50 [56]: 0.731 µM
- TGI [56]: 2.13 µM
- GI50 [57]: 1.65 µM
- TGI [57]: 5.02 µM
- GI50 [58]: 0.527 µM
- TGI [58]: 1.98 µM
